From patent publication EP4610270A1, “NOVEL ANTIMICROBIAL PEPTIDE AND PHARMACEUTICAL COMPOSITION THEREOF” (Qingdao Sensheng Biopharmaceutical Technology Co., Ltd, priority 2022, dated 2024)

Columns and labels:
[1] = tested on: Human red blood cells (RBC); assay type: cell-based
Method: Human red blood cells (RBC) were used to detect the hemolytic activity of Ac-SH-17. All subjects provided written informed consent. The obtained healthy human blood was placed in an EDTA anticoagulant tube. Red blood cells were collected by centrifugation and suspended in PBS to a concentration of 4% (v/v). An equal portion of 200 µl red blood cell suspension was mixed with 200 µl of Ac-SH-17 solution at different concentrations (12.5, 25, 50, 100, and 200 µg/ml). After incubation at 37°C, the mixture was centrifuged […], and the supernatant was collected and added to a 96-well plate. Red blood cells incubated with PBS, BSA solution (100 µg/ml), or 0.1% Triton X-100 solution were used as blank control, negative control, and positive control, respectively. The absorbance was measured at 540 nm using a microplate reader. Three parallel samples were set up for each experiment, and the experiment was repeated at least three times. The results were analyzed for significant differences by a two-way ANOVA method, with p<0.05 indicating significant differences. Table 3.1 Hemolysis analysis

[2] = Antisepsis experiment: survival in fecal homogenate sepsis model; assay type: in vivo, SD rats; details: intraperitoneal 0.5 ml of 80 µM; within 24 h; compared to the model group; FIG. 5
Method: Sepsis refers to a systemic inflammatory response syndrome caused by infectious factors. A rat model of intestinal sepsis was established by injecting rat fecal homogenate into the abdominal cavity of model rats, followed by intraperitoneal injection of antimicrobial peptides to observe the survival rate of mice within 10-48 h, in order to evaluate the therapeutic effect of antimicrobial peptides on sepsis in mice.
60 SD rats were randomly divided into 6 groups by a random number table method, i.e., model group 1, model group 2, model group 3, model group 4, model group 5, and blank group, with 10 rats in each group. These 6 groups of rats were weighed and numbered in sequence.
After 1 week of adaptive feeding, fresh formed feces were collected from these 60 SD rats. After weighing the rat feces, an appropriate amount of physiological saline was added to it, and then the mixture was placed in a homogenizer for thorough grinding to prepare a rat feces homogenate at the concentration of 10%. The rat fecal homogenate was centrifuged at 3000 rpm for 5 min to obtain the supernatant, and then a syringe was used to suck out an appropriate amount of the supernatant for later use.
Before modeling, rats in model groups 1-5 were fasted for 12 hours, and then a 10% concentration of rat feces homogenate supernatant was injected intraperitoneally at a dose of 1 ml/200 g. […]

[3] = tested on: RAW264.7 mouse macrophage cell line; experiment: Anti-inflammatory experiment: NO release after LPS stimulation (Griess); assay type: cell-based; details: antimicrobial peptide 80 µM; 1 µg/ml LPS stimulation; FIG. 4
Description: NO is a diffusible and membrane permeable small molecule obtained during the oxidation of L-arginine by NOS. NO was associated with many physiological reactions in organisms. […] But at low concentrations, NO could act as a signal to positively and negatively regulate innate and acquired immunity. Thus, by detecting the concentration of NO released by cells, the inflammatory response of cells could be detected.
The RAW264.7 mouse macrophage cell line was used as the experimental material and cultured in a DMEM high glucose medium containing FBS (10%) and penicillin-streptomycin dual antibody (100 U/ml). The RAW264.7 mouse macrophage cell line was used for experiments when the cell state was stable, the shape was full, and the edges were transparent.
• 1. The culture medium was removed from the cells and gently purged twice with PBS at room temperature to remove excess culture medium. After digestion with 0.25% trypsin for 3 min, the culture bottle was gently tapped to induce cell detachment, and then the culture medium was added to terminate digestion. The culture bottle was repeatedly blown and beaten to make the cells uniform. • 2. […]
4.2 In this experiment, NO was detected by the method provided in the total nitric oxide content determination kit, and improvements were made. […]

[4] = tested on: Staphylococcus aureus 25923 (ATCC 25923, S. aureus 25923); experiment: Antimicrobial activity by liquid antimicrobial / turbidimetric method (OD540, microplate reader); assay type: cell-based; details: S. aureus drug sensitive strain; FIG. 2
Method: (§1) The materials of Gram negative bacteria and Gram positive bacteria used in the embodiments of the present disclosure include Gram negative bacteria Escherichia coli strain Escherichia coli 25922 (ATCC 25922, E. coli 25922) and Gram positive bacteria Staphylococcus aureus strain Staphylococcus aureus 25923 (ATCC 25923, S. aureus 25923). […] 100 µl of the sample was immediately taken and placed in a microplate reader to measure its OD540, which was recorded as OD 0h. Then the sample was placed in a 37°C constant temperature incubator for cultivation, 100 µl of the sample was taken every 1 h, and the OD540 of each centrifuge tube was measured. Based on the changes in absorbance, the growth of bacteria could be determined, and the antimicrobial activity and minimum inhibitory concentration (MIC) of the polypeptide could be determined. […] 100 µl of the sample was immediately taken and placed in a microplate reader to measure its OD540, which was record as OD 0h. Then the sample was placed in a 37°C constant temperature incubator for cultivation, 100 µl of the sample was taken every 1 h, and the OD540 of each centrifuge tube was measured once.

[5] = tested on: Escherichia coli 25922 (ATCC 25922, E. coli 25922); experiment: as above; assay type: cell-based; details: E. coli drug sensitive strain; FIG. 1
Method: as §1

Substance: Ac-SRMKKWAKIIEKWRKWH-NH2 [Ac-SH-17, Ac-SRMKKWAKIIEKWRKWH-NH2]
- OD Value [1]: 0.061±0.013
- hemolytic effect [1]: does not have significant hemolytic effect
- Hemolysis Ratio (%) ([1]; red cells of human): 4.40%
- survival rate [2]: significantly improved the survival rate
- inhibition of the release of NO [3]: significantly inhibited the release of NO
- release concentration of NO [3]: substantially the same as that of the blank control
- antimicrobial activity [4]: exhibited antimicrobial activity
- antimicrobial activity [5]: exhibited antimicrobial activity
